Drawing on the Kinase Knowledgebase extract (Sharma et al. 2016), this text covers IC50 for 98 compounds.

This test addresses EGFR (UniProt P00533).

SMILES strings stand for the structures.

Sequence of EGFR (P00533 whole entry, looked up): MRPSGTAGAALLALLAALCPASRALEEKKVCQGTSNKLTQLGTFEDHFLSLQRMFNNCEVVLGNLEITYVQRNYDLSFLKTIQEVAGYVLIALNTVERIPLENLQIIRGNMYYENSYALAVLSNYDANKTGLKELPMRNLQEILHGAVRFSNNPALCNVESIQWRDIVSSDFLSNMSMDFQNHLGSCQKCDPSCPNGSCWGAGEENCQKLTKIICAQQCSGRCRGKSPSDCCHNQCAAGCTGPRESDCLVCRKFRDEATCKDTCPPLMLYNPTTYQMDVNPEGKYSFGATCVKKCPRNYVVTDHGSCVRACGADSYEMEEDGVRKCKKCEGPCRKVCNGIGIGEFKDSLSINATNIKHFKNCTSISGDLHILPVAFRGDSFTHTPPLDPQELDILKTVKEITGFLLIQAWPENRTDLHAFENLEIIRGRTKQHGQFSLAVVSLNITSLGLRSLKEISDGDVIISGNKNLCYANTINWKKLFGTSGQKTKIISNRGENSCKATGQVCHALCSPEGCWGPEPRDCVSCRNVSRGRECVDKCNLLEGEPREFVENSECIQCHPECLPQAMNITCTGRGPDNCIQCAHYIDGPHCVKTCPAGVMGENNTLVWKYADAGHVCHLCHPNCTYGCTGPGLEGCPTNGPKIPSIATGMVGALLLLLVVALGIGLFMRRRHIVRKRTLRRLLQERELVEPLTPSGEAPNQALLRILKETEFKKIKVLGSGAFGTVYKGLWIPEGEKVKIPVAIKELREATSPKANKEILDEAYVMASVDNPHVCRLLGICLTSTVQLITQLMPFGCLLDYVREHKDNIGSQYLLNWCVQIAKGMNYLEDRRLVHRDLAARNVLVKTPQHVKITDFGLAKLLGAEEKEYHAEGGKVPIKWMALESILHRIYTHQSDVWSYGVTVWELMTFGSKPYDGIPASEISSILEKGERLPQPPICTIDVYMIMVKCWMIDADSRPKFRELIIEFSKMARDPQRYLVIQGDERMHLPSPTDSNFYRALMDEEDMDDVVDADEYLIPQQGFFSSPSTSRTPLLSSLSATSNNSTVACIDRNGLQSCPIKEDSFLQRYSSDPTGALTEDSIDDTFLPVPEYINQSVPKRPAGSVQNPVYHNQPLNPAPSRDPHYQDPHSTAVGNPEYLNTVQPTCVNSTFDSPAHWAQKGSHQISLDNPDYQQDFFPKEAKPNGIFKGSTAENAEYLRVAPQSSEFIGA

For orientation: IC50 means the concentration that inhibits the measured activity by half. Lower therefore signals greater potency. `Cc1c(C(=O)NCCN2CCCC2)cn2ncnc(C3C(=O)Nc4ccccc43)c12` (stereo not drawn) gave an IC50 of 0.003 to 25 µM. The result for `COc1c(C(=O)N(C)CCN2CCCC2)cn2ncnc(Nc3ccc(Br)cc3F)c12` reads 0.003 to 25 µM; that for `Cc1c(C(=O)NCCCn2nccn2)cn2ncnc(C3C(=O)Nc4ccccc43)c12` (stereo not drawn), 0.003 to 25 µM; that for `CCOC(=O)c1cn2ncnc(Nc3ccc(OC)nc3)c2c1CC`, 0.003 to 25 µM. For `CCc1c(CO)cn2ncnc(Nc3ccc4c(cnn4Cc4ccccc4)c3)c12` the value was 0.003 to 25 µM; for `COC(=O)c1cn2ncnc(Nc3ccc(F)c(Cl)c3)c2c1CCCOCc1ccccc1`, 0.003 to 25 µM. The result for `COC(=O)c1cn2ncnc(Nc3cc(O)c4ccccc4c3)c2c1C` reads 0.003 to 25 µM. For the compound `Clc1ccc(Nc2ncnn3c(Br)ccc23)cc1`, the IC50 was in the range of 0.003 to 25 µM. `COC(=O)c1cn2ncnc(C3C(=O)Nc4nc(C)ncc43)c2c1C` (stereo not drawn) showed an IC50 of 0.003 to 25 µM. The result for `Cc1ccc(Nc2ncnn3cc(C(=O)NCCCN4CCCC4)c(C)c23)cc1O` reads 0.003 to 25 µM; that for `Cc1ccc(Nc2ncnn3cc(C(=O)NCCCN4CCOCC4)c(C)c23)cc1O`, 0.003 to 25 µM; that for `COC(=O)c1cn2ncnc(Nc3ccc(C)c(NS(C)(=O)=O)c3)c2c1C`, 0.003 to 25 µM.

With `COC(=O)c1cn2ncnc(C3C(=O)N(C)c4ccccc43)c2c1C` (stereo not drawn), the IC50 lay within 0.003 to 25 µM. For `Cc1c(C(=O)NCCCN2CCOCC2)cn2ncnc(C3C(=O)Nc4cc(F)ccc43)c12` (stereo not drawn) the value was 0.003 to 25 µM; for `CCOC(=O)c1cn2ncnc(Nc3ccc4c(cnn4Cc4ccccc4)c3)c2c1C(C)C`, 0.003 to 25 µM; for `Cc1ccc(Nc2ncnn3cc(C(=O)NCCCN4CCN(C)CC4)c(C)c23)cc1O`, 0.003 to 25 µM.

Compound `CCCCc1ccc(Nc2ncnn3cc(C(=O)OC)c(C)c23)cc1O` returned a half-inhibitory concentration (IC50) of 0.003 to 25 µM. On to `CCOC(=O)c1cn2ncnc(Nc3ccc4c(cnn4Cc4ccccc4)c3)c2c1Cc1ccccc1`, for which the 50% inhibitory concentration (IC50) was 0.003 to 25 µM.

Consider `Cc1c(C(=O)NCCCN2CCN(C)CC2)cn2ncnc(C3C(=O)Nc4ccccc43)c12` (stereo not drawn), for which the IC50 was in the range of 0.003 to 25 µM. The result for `Cc1c(NS(C)(=O)=O)cn2ncnc(C3C(=O)Nc4ccccc43)c12` (stereo not drawn) reads 0.003 to 25 µM; that for `COC(=O)c1cn2ncnc(Nc3ccc(C)c(C)c3)c2c1C`, 0.003 to 25 µM.

`COC(=O)c1cn2ncnc(Nc3cc(CO)ccc3C)c2c1C`: the IC50 is 0.003 to 25 µM.

`Cc1ccc(Nc2ncnn3cc(C(=O)NCCCS(C)(=O)=O)c(C)c23)cc1O`: the 50% inhibitory concentration (IC50) was 0.003 to 25 µM.

As for `CCOC(=O)c1cn2ncnc(NCC3(O)CCCCC3)c2c1CC`, the half-inhibitory concentration (IC50) lay within 0.003 to 25 µM. Regarding `Cc1c(C(=O)NCCCN2CCOCC2)cn2ncnc(C3C(=O)Nc4ccc(F)cc43)c12` (stereo not drawn), the concentration for half-maximal inhibition (IC50) was in the range of 0.003 to 25 µM. The result for `COC(=O)c1cn2ncnc(Nc3ccc4c(cnn4Cc4ccccc4)c3)c2c1C` reads 0.003 to 25 µM; that for `CCc1c(C(=O)NCCCn2ccnc2)cn2ncnc(Nc3ccc4c(cnn4Cc4ccccc4)c3)c12`, 0.003 to 25 µM. Consider `CCOC(=O)c1cn2ncnc(Nc3ccc(C)c(O)c3)c2c1CC`, for which the IC50 lay in the range of 0.003 to 25 µM. The result for `CCOC(=O)c1cn2ncnc(NCc3cccc(Br)c3)c2c1CC` reads 0.003 to 25 µM; that for `COC(=O)c1cn2ncnc(-c3c(O)[nH]c4cc(Br)ccc34)c2c1C`, 0.003 to 25 µM; that for `COC(=O)c1cn2ncnc(N3CCc4ccccc43)c2c1C`, 0.003 to 25 µM. For `CCOC(=O)c1cn2ncnc(Nc3ccc(F)c(Cl)c3)c2c1Cc1ccccc1` the value was 0.003 to 25 µM; for `COC(=O)c1cn2ncnc(N3CC(=O)Nc4ccccc43)c2c1C`, 0.003 to 25 µM.

`Cc1ccc(Nc2ncnn3cc(C(=O)NCCN(C)C)c(C)c23)cc1O` gave an IC50 of 0.003 to 25 µM. The result for `COC(=O)c1cn2ncnc(Nc3ccc(Oc4ccccc4)cc3)c2c1C` reads 0.003 to 25 µM. On to `COC(=O)c1cn2ncnc(Nc3ccc(OC)c(O)c3)c2c1C`, for which the IC50 is 0.003 to 25 µM. For `Cc1ccc(Nc2ncnn3cccc23)cc1O` the value was 0.003 to 25 µM; for `Cc1c(C(=O)NCCCN2CCOCC2)cn2ncnc(C3C(=O)Nc4ccccc43)c12` (stereo not drawn), 0.003 to 25 µM. For the compound `Cc1nc(C2C(=O)Nc3ccccc32)c2c(C)c(C(=O)NCCN3CCCC3)cn2n1` (stereo not drawn), the IC50 fell in the range of 0.003 to 25 µM.

The compound `CCOC(=O)c1cn2ncnc(Nc3ccc(O)cc3)c2c1CC` gave an IC50 of 0.003 to 25 µM.

Regarding `COC(=O)c1cn2ncnc(C3C(=O)Nc4ccc(S(=O)(=O)NCCO)cc43)c2c1C` (stereo not drawn), the half-maximal inhibitory concentration (IC50) was in the range of 0.003 to 25 µM.

Compound `COc1cn2ncnc(C3C(=O)Nc4ccccc43)c2c1OC` (stereo not drawn) returned a half-inhibitory concentration (IC50) of 0.003 to 25 µM. For `COC(=O)c1cn2ncnc(Nc3ccc(C(=O)O)c(O)c3)c2c1C` the value was 0.003 to 25 µM.

Turning to `Cc1c(CCCN2CCOCC2)cn2ncnc(Nc3cccc(Br)c3)c12`, the IC50 fell in the range of 0.003 to 25 µM. For `COCCCNC(=O)c1cn2ncnc(Nc3ccc(C)c(O)c3)c2c1C` the value was 0.003 to 25 µM.

Turning to `COC(=O)c1cn2ncnc(C3C(=O)Nc4ccc(F)cc43)c2c1C` (stereo not drawn), the IC50 is 0.003 to 25 µM.

Consider `COC(=O)c1cn2ncnc(Nc3ccc(C#N)c(O)c3)c2c1C`, for which the IC50 fell in the range of 0.003 to 25 µM. In turn, `CCNC(=O)c1cn2ncnc(Nc3ccc4c(cnn4Cc4ccccc4)c3)c2c1CC` had a half-maximal inhibitory concentration (IC50) of 0.003 to 25 µM. The result for `COC(=O)c1cn2ncnc(Nc3ccc(C(C)C)c(O)c3)c2c1C` reads 0.003 to 25 µM; that for `COC(=O)c1cn2ncnc(Nc3cc(C)[nH]n3)c2c1C`, 0.003 to 25 µM. For `CCc1c(COCCN2CCOCC2)cn2ncnc(Nc3ccc4c(cnn4Cc4ccccc4)c3)c12` the value was 0.003 to 25 µM; for `Cc1c(C(N)=O)cn2ncnc(C3C(=O)Nc4ccccc43)c12` (stereo not drawn), 0.003 to 25 µM. Take `CCOC(=O)c1cn2ncnc(Cc3ccc(F)c(Cl)c3)c2c1C(C)C`: the IC50 lay within 0.003 to 25 µM. For `CCCc1c(C(=O)OCC)cn2ncnc(Nc3ccc(C)c(O)c3)c12` the value was 0.003 to 25 µM; for `COCCNC(=O)c1cn2ncnc(C3C(=O)Nc4ccccc43)c2c1C` (stereo not drawn), 0.003 to 25 µM; for `CCOC(=O)c1cn2ncnc(NCc3ccccc3)c2c1CC`, 0.003 to 25 µM. The result for `CCOC(=O)c1cn2ncnc(Nc3ccc(C)cc3)c2c1CC` reads 0.003 to 25 µM; that for `CCOC(=O)c1cn2ncnc(C3C(=O)Nc4ccccc43)c2c1OCC` (stereo not drawn), 0.003 to 25 µM. In turn, `COC(=O)c1cc2c(Nc3ccc(F)c(Cl)c3)ncnn2c1` yielded a concentration for half-maximal inhibition (IC50) of 0.003 to 25 µM. `COC(=O)c1cn2ncnc(Nc3ccc4c(c3)C(=O)NC4=O)c2c1C`: the 50% inhibitory concentration (IC50) is 0.003 to 25 µM.

With `COc1c(N)cn2ncnc(C3C(=O)Nc4ccccc43)c12` (stereo not drawn), the IC50 fell in the range of 0.003 to 25 µM. Take `CCCc1c(C(=O)NCCCN2CCOCC2)cn2ncnc(Nc3ccc(C)c(O)c3)c12`: the IC50 lay in the range of 0.003 to 25 µM.

The compound `COC(=O)c1cn2ncnc(Nc3cccc(O)c3)c2c1C` gave a 50% inhibitory concentration (IC50) of 0.003 to 25 µM.

As to `Cc1c(NS(=O)(=O)CCCN2CCOCC2)cn2ncnc(C3C(=O)Nc4ccccc43)c12` (stereo not drawn), the IC50 was in the range of 0.003 to 25 µM. For `COC(=O)c1cn2ncnc(Nc3cc(NS(C)(=O)=O)ccc3C)c2c1C` the value was 0.003 to 25 µM; for `Cc1c(C(=O)NCCCN2CCCC2)cn2ncnc(C3C(=O)Nc4ccccc43)c12` (stereo not drawn), 0.003 to 25 µM. With `CCc1c(C(=O)NCCN2CCCC2)cn2ncnc(Nc3ccc(OC)nc3)c12`, the IC50 was in the range of 0.003 to 25 µM.

`COC(=O)c1cn2ncnc(Nc3ccc(C)c(N)c3)c2c1C`: the IC50 was in the range of 0.003 to 25 µM. `CCc1c(NC(=O)OCc2ccccc2)cn2ncnc(Nc3ccc(OC)nc3)c12` had an IC50 of 0.003 to 25 µM. The result for `Clc1ccc(Nc2ncnn3cccc23)cc1` reads 0.003 to 25 µM. Take `CCc1c(C(=O)OC)cn2ncnc(Nc3ccc4c(cnn4Cc4ccccc4)c3)c12`: the IC50 fell in the range of 0.003 to 25 µM. On to `COC(=O)c1cn2ncnc(C3C(=O)Nc4ccc(S(=O)(=O)N5CCOCC5)cc43)c2c1C` (stereo not drawn), for which the concentration for half-maximal inhibition (IC50) was 0.003 to 25 µM. For `CCOC(=O)c1cn2ncnc(Nc3ccc(Cl)nc3)c2c1CC` the value was 0.003 to 25 µM; for `COc1c(C(=O)NCCCN2CCOCC2)cn2ncnc(C3C(=O)Nc4ccccc43)c12` (stereo not drawn), 0.003 to 25 µM. The result for `COC(=O)c1cn2ncnc(Nc3cccc(S(N)(=O)=O)c3)c2c1C` reads 0.003 to 25 µM; that for `Cc1c(C(=O)NCCCn2ccnn2)cn2ncnc(C3C(=O)Nc4ccccc43)c12` (stereo not drawn), 0.003 to 25 µM; that for `COC(=O)c1cn2ncnc(Nc3cc[nH]n3)c2c1C`, 0.003 to 25 µM. The result for `CCOC(=O)c1cn2ncnc(C3C(=O)Nc4ccccc43)c2c1OC` (stereo not drawn) reads 0.003 to 25 µM; that for `CCOC(=O)c1cn2ncnc(Nc3ccc(OC)nc3)c2c1OC`, 0.003 to 25 µM. For `CCOC(=O)c1cn2ncnc(N3CCC4C=CC=CC4C3)c2c1CC` (stereo not drawn), the half-maximal inhibitory concentration (IC50) lay within 0.003 to 25 µM.

The compound `CCOC(=O)c1cn2ncnc(Nc3ccc(F)c(Cl)c3)c2c1CC` showed an IC50 of 0.003 to 25 µM. For `Cc1c(C(=O)NCC2CCCO2)cn2ncnc(C3C(=O)Nc4ccccc43)c12` (stereo not drawn) the value was 0.003 to 25 µM; for `Cc1ccc(Nc2ncnn3cc(CO)c(C)c23)cc1O`, 0.003 to 25 µM.

Consider `COC(=O)c1cn2ncnc(Nc3cc(C)cc(O)c3)c2c1C`, for which the concentration for half-maximal inhibition (IC50) lay within 0.003 to 25 µM.

For the compound `COC(=O)c1cn2ncnc(-n3[nH]c(C)cc3=O)c2c1C`, the 50% inhibitory concentration (IC50) fell in the range of 0.003 to 25 µM. Compound `Cc1ccn2ncnc(Nc3ccc(Br)cc3F)c12` displayed a half-maximal inhibitory concentration (IC50) of 0.003 to 25 µM. As to `CNS(=O)(=O)c1ccc2c(c1)C(c1ncnn3cc(C(=O)OC)c(C)c13)C(=O)N2` (stereo not drawn), the IC50 was in the range of 0.003 to 25 µM. For `CCOC(=O)c1cn2ncnc(Nc3ccc(Br)cc3F)c2c1OC` the value was 0.003 to 25 µM; for `Cc1ccc(Nc2ncnn3ccc(C)c23)c(O)c1`, 0.003 to 25 µM; for `Cc1c(NC(=O)NCCCN2CCOCC2)cn2ncnc(C3C(=O)Nc4ccccc43)c12` (stereo not drawn), 0.003 to 25 µM. For `COC(=O)c1cn2ncnc(Nc3ccc4cn[nH]c4c3)c2c1C` the value was 0.003 to 25 µM; for `Cc1ccc(Nc2ncnn3cc(OCCCn4nccn4)c(C)c23)cc1O`, 0.003 to 25 µM; for `COC(=O)c1cn2ncnc(Nc3ccc(C)c(O)c3)c2c1C`, 0.003 to 25 µM. The compound `CCc1c(CO)c(Br)n2ncnc(Nc3ccc4c(cnn4Cc4ccccc4)c3)c12` returned an IC50 of 0.003 to 25 µM. The result for `Cc1c(C(=O)NCCCn2cncn2)cn2ncnc(C3C(=O)Nc4ccccc43)c12` (stereo not drawn) reads 0.003 to 25 µM; that for `Cc1c(C(=O)NCCCN2CCOCC2)cn2ncnc(C3C(=O)Nc4ccc(S(N)(=O)=O)cc43)c12` (stereo not drawn), 0.003 to 25 µM; that for `CCc1c(C(=O)N(CCCn2ccnc2)c2ccccn2)cn2ncnc(Nc3ccc4c(cnn4Cc4ccccc4)c3)c12`, 0.003 to 25 µM. For `COC(=O)c1cn2ncnc(Nc3cccc(NC(C)=O)c3)c2c1C` the value was 0.003 to 25 µM.
